The source of these data is PubChem BioAssay (NCI).

Several values for one entry are separate records, joined by “and”; a condition that tells them apart may be missing. Equal entries are not always repeated.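 How tested: cells in 96-well plates exposed to compound for 48 hours at five concentrations. GI50 marks 50% less growth. TGI is the concentration that stops growth completely.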

Among the test systems are 786-0 renal; HL-60(TB) leukemia; NCI-H522 lung; OVCAR-3 ovarian; RXF 393 renal; SF-539 CNS; SN12C renal; SW-620 colon; UACC-62 melanoma; LOX IMVI melanoma.
Common to all, as to assay: NCI-60 cell line screen, 48 h

Turning to `COc1cc(O)ccc1C(=S)SC`, the TGI in the assay on 786-0 renal, in the assay with HL-60(TB) leukemia, with NCI-H522 lung, with OVCAR-3 ovarian, in the assay with RXF 393 renal and in the assay with SF-539 CNS was above 100 µM each time. Also, the TGI in the assay with SN12C renal is 9.56 µM; in the assay with SW-620 colon, above 100 µM; in the assay on UACC-62 melanoma, above 100 µM.

Regarding `COC(=O)C(C(=O)C(=O)Nc1c(C)cccc1C(C)(C)C)c1nc2ccc(Cl)cc2[nH]c1=O` (stereo unspecified), the TGI in the assay on 786-0 renal, with LOX IMVI melanoma, with NCI-H522 lung, in the assay with OVCAR-3 ovarian, in the assay with RXF 393 renal and in the assay with SF-539 CNS was above 100 µM in each case. For the same molecule, the TGI in the assay with SN12C renal, in the assay on SW-620 colon and in the assay on UACC-62 melanoma was above 100 µM each time.

For `O=S(=O)(NC1=NCCN1C(=S)SN1CCn2c1nsc2=S)c1ccc(Cl)cc1`, the GI50 in the assay with 786-0 renal was 16.6 µM; in the assay with LOX IMVI melanoma, 3.84 µM; with NCI-H522 lung it was 4.74 µM; in the assay with OVCAR-3 ovarian it was 2.54 µM; with RXF 393 renal it was 3.09 µM; with SF-539 CNS, 1.47 µM. The GI50 was 8.56 µM in the assay on SN12C renal, 4.42 µM in the assay on SW-620 colon and 3.68 µM with UACC-62 melanoma. Moreover, the TGI was found to be 32.4 µM in the assay with 786-0 renal; 15.7 µM with LOX IMVI melanoma; 18.4 µM in the assay on NCI-H522 lung; 12.2 µM in the assay on OVCAR-3 ovarian; 34.4 µM in the assay on RXF 393 renal; 3.12 µM in the assay with SF-539 CNS. Moreover, the TGI with SN12C renal was 22.5 µM; in the assay on SW-620 colon it was 17.9 µM; with UACC-62 melanoma, 13.6 µM.

On to `Cc1cc2c(c(C(=O)O)c1C)-c1cccc(Cl)c1C2=O`, for which the TGI in the assay with 786-0 renal, with LOX IMVI melanoma, in the assay with NCI-H522 lung, with OVCAR-3 ovarian, in the assay with RXF 393 renal and in the assay on SN12C renal was above 100 µM in each case. Moreover, the TGI in the assay with SW-620 colon and in the assay on UACC-62 melanoma was above 100 µM each time.

`Cc1n[nH]c2ccccc2c1=O`: the TGI in the assay on 786-0 renal, with LOX IMVI melanoma, in the assay with NCI-H522 lung, in the assay on OVCAR-3 ovarian, in the assay with RXF 393 renal and with SF-539 CNS was above 100 µM in each case. Moreover, the TGI with SN12C renal, in the assay on SW-620 colon and with UACC-62 melanoma was above 100 µM throughout.

Turning to `COc1ccc(-c2nc3ccccc3s2)cc1OC`, the TGI with 786-0 renal, in the assay with HL-60(TB) leukemia, in the assay on LOX IMVI melanoma, in the assay on SF-539 CNS, in the assay on SN12C renal and in the assay with SW-620 colon was above 100 µM in each case. The molecule also registered a TGI with UACC-62 melanoma above 100 µM.

With `O=c1c(Cc2ccccc2)c(O)cc2n1CCC2`, the TGI in the assay on 786-0 renal, in the assay with LOX IMVI melanoma, with NCI-H522 lung, in the assay on OVCAR-3 ovarian, in the assay on RXF 393 renal and in the assay with SF-539 CNS was above 100 µM in each case. In addition, the TGI in the assay with SN12C renal, in the assay with SW-620 colon and with UACC-62 melanoma was above 100 µM throughout.

Take `O=c1c2cccnc2ncn1CCCN1CCCCC1`: the TGI with 786-0 renal, in the assay on LOX IMVI melanoma, with NCI-H522 lung, with OVCAR-3 ovarian, with RXF 393 renal and in the assay with SF-539 CNS was above 100 µM throughout. Also, the TGI in the assay with SN12C renal, in the assay with SW-620 colon and in the assay with UACC-62 melanoma was above 100 µM each time.

In the case of `OCC(O)C(O)C(O)C(/C=N\Nc1ncnc2c(Br)cc(Br)cc12)=N/Nc1ncnc2c(Br)cc(Br)cc12` (stereo unspecified), the GI50 in the assay on 786-0 renal was 2.73 µM and 5.76 µM; in the assay on HL-60(TB) leukemia, 6.47 µM and 2.8 µM; with NCI-H522 lung, 10.1 µM and 3.6 µM; with SN12C renal, 5.09 µM and 24.8 µM. The TGI in the assay with HL-60(TB) leukemia is above 100 µM; in the assay on LOX IMVI melanoma it was 31.4 µM and > 100 µM; in the assay with NCI-H522 lung, 24.9 µM and > 100 µM; in the assay on OVCAR-3 ovarian it was 16.5 µM and > 100 µM; with SF-539 CNS, 33.9 µM; in the assay on SN12C renal it was 18.8 µM and > 100 µM. The molecule also had a TGI with SW-620 colon above 100 µM.

With `O=c1[nH]ccc(CNC23CC4CC(CC(C4)C2)C3)c1O`, the TGI in the assay on 786-0 renal was above 100 µM; in the assay with HL-60(TB) leukemia, above 100 µM; in the assay on NCI-H522 lung, 52.7 µM; in the assay with OVCAR-3 ovarian it was above 100 µM; with RXF 393 renal, above 100 µM; with SF-539 CNS, above 100 µM. In addition, the TGI in the assay with SN12C renal, with SW-620 colon and in the assay with UACC-62 melanoma was above 100 µM each time.

`O=C(c1ccccc1)C1N=NN(Cc2ccccc2[N+](=O)[O-])C1C(=O)c1ccccc1` (stereo unspecified): the TGI in the assay with 786-0 renal, in the assay with HL-60(TB) leukemia, with LOX IMVI melanoma, in the assay on NCI-H522 lung, in the assay with OVCAR-3 ovarian and in the assay on RXF 393 renal was above 100 µM in each case. Also, the TGI with SW-620 colon and in the assay with UACC-62 melanoma was above 100 µM each time.

Turning to `CC(C)C[C@@H](N)[C@@H](O)C(=O)N[C@H](C(=O)N[C@H](C(=O)N[C@@H](CC(=O)O)C(=O)O)C(C)C)C(C)C`, the GI50 in the assay with 786-0 renal, with LOX IMVI melanoma, in the assay with NCI-H522 lung, in the assay with OVCAR-3 ovarian, with SF-539 CNS and in the assay on SN12C renal was above 20 µM in each case. In addition, the GI50 in the assay with SW-620 colon and in the assay on UACC-62 melanoma was above 20 µM each time. Further, the TGI in the assay with 786-0 renal, in the assay on LOX IMVI melanoma, in the assay with NCI-H522 lung, with OVCAR-3 ovarian, in the assay on SF-539 CNS and with SN12C renal was above 20 µM throughout. Also, the TGI with SW-620 colon and in the assay on UACC-62 melanoma was above 20 µM throughout.

In the case of `O=c1c(-c2ccc3c(c2)OCO3)coc2c3c(ccc12)OCO3`, the TGI in the assay with 786-0 renal is 35.5 µM; in the assay on HL-60(TB) leukemia, above 100 µM; with LOX IMVI melanoma, above 100 µM; in the assay with NCI-H522 lung, 37.5 µM; with OVCAR-3 ovarian it was above 100 µM; in the assay on SF-539 CNS it was 58.7 µM. In addition, the TGI in the assay on SN12C renal, with SW-620 colon and in the assay with UACC-62 melanoma was above 100 µM throughout.
